# Source: US9550792B2, “Polycyclic substituted pyrazole kinase activity inhibitors and use thereof” (priority 2013, dated 2017)
# What was measured:
# CDK2/A = target: T1, CDK2/A (Homo sapiens, UniProt P24941); experiment: Inhibitory activity to CDK2 (FRET); type: biochemical; settings: for inhibition at 1 µM: read-out: CDK2 inhibition % (1 × 10^−6 mol/L)
# T1 construct: purchased
# Protocol: CDK2/A was purchased in the form of a kit or obtained through purification.
# Procedures: CDK2/A is diluted to a suitable concentration with kinase diluent. The kinase reaction mixture contains CDK2/A, peptide substrate, HEPES (pH7.5), BRIJ-35, MgCl2 and EDTA. CDK2 phospho-peptide substrate is used as the control of 100% phosphorylation and ATP-free as the control of 0% phosphorylation. After 1 h, the diluted Development Reagent A is added into the reaction system. Then the reaction is allowed to proceed for 1 h and then quenched with Stop Reagent. […] The inhibitions of the tested compounds are calculated according to the formula.
# Aurora A = target: T2, Aurora A (Homo sapiens, UniProt O14965); experiment: Inhibitory activity to Aurora A (FRET); type: biochemical; settings: for inhibition at 1 µM: read-out: Aurora A inhibition % (1 × 10^−6 mol/L)
# T2 construct: purchased
# T2 sequence (O14965 1-403): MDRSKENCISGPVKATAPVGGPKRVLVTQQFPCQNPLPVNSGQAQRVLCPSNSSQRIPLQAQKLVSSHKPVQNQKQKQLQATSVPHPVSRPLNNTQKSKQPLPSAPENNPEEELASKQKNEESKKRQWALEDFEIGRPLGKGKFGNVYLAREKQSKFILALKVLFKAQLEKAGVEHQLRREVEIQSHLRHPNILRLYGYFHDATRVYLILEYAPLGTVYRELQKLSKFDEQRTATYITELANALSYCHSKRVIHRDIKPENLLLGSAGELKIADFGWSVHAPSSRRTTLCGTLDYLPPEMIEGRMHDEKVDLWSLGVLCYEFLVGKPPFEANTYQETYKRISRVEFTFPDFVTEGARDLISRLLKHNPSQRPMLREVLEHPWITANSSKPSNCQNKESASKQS
# Protocol: The inhibitory activities of the synthesized compounds for Aurora A is determined by fluorescence resonance energy transfer (FRET) and were compared with the positive control drug so as to screen the compounds with better activities. Aurora A was purchased in the form of a kit or obtained through purification. Procedures: Aurora A is diluted to a suitable concentration with kinase diluent. The kinase reaction mixture contains Aurora A, peptide substrate, HEPES (pH7.5), BRIJ-35, MgCl2 and EDTA. Aurora A phospho-peptide substrate is used as the control of 100% phosphorylation and ATP-free as the control of 0% phosphorylation. After 1 h, the diluted Development Reagent A is added into the reaction system. Then the reaction is allowed to proceed for 1 h and then quenched with Stop Reagent. The excitation wavelength is 400 nm and the fluorescence intensity is detected at 445 nm (coumarin) and 520 nm (fluorescein). The inhibitions of the tested compounds are calculated according to the formula.
compound,measurement,setting,value
"Cc1cc2c(Nc3c[nH]nc3C(=O)Nc3ccc(CN4CCOCC4)cc3)ncnc2s1 [Compound I-4, 4-(4-(6-methylthieno[2,3-d]pyrimidinyl)amino)-N-(4-((4-morpholinyl)methyl)phenyl)-1H-3-pyrazolecarboxamide]",CDK2 inhibition % (1 × 10^−6 mol/L),CDK2/A,52.73%
same,Aurora A inhibition % (1 × 10^−6 mol/L),Aurora A,64.46%
"Cc1cc2c(Nc3c[nH]nc3C(=O)Nc3ccc(CN4CCOCC4)cc3)nccc2s1 [Compound I-28, 4-(4-(2-methylthieno[3,2-c]pyridyl)amino)-N-(4-((4-morpholinyl)methyl)phenyl)-1H-3-pyrazolecarboxamide]",CDK2 inhibition % (1 × 10^−6 mol/L),CDK2/A,76.91%
same,Aurora A inhibition % (1 × 10^−6 mol/L),Aurora A,67.63%
"Cc1cc2c(Nc3c[nH]nc3C(=O)Nc3ccc(CN4CCOCC4)cc3)nccc2o1 [Compound I-36, 4-(4-(2-methylfuro[3,2-c]pyridyl)amino)-N-(4-((4-morpholinyl)methyl)phenyl)-1H-3-pyrazolecarboxamide]",CDK2 inhibition % (1 × 10^−6 mol/L),CDK2/A,64.51%
same,Aurora A inhibition % (1 × 10^−6 mol/L),Aurora A,56.23%
"O=C(Nc1ccc(CN2CCOCC2)cc1)c1n[nH]cc1Nc1nccc2ccoc12 [Compound I-38, 4-(7-furo[2,3-c]pyridylamino)-N-(4-((4-morpholinyl)methyl)phenyl)-1H-3-pyrazolecarboxamide]",inhibition at 1 µM,CDK2/A,64.8%
same,melting point,,268 to 272 °C
same,inhibition at 1 µM,Aurora A,51%
"Cc1sc2ncnc(Nc3c[nH]nc3C(=O)Nc3ccc(CN4CCOCC4)cc3)c2c1C [Compound I-8, 4-(4-(5,6-dimethylthieno[2,3-d]pyrimidinyl)amino)-N-(4-((4-morpholinyl)methyl)phenyl)-1H-3-pyrazolecarboxamide]",CDK2 inhibition % (1 × 10^−6 mol/L),CDK2/A,54.65%
same,Aurora A inhibition % (1 × 10^−6 mol/L),Aurora A,48.49%
"Cc1csc2c(Nc3c[nH]nc3C(=O)Nc3ccc(CN4CCOCC4)cc3)nccc12 [Compound I-32, 4-(7-(3-methylthieno[2,3-c]pyridyl)amino)-N-(4-((4-morpholinyl)methy)phenyl)-1H-3-pyrazolecarboxamide]",CDK2 inhibition % (1 × 10^−6 mol/L),CDK2/A,38.28%
same,Aurora A inhibition % (1 × 10^−6 mol/L),Aurora A,67.45%
"O=C(Nc1ccc(CN2CCOCC2)cc1)c1n[nH]cc1Nc1ccnc2occc12 [Compound I-42, 4-(4-furo[2,3-b]pyridylamino)-N-(4-((4-morpholinyl)methyl)phenyl)-1H-3-pyrazolecarboxamide]",inhibition at 1 µM,CDK2/A,54.2%
same,melting point,,269 to 271 °C
same,inhibition at 1 µM,Aurora A,51.8%
"Cc1cc2c(Nc3c[nH]nc3C(=O)Nc3ccc(CN4CCN(C)CC4)cc3)nccc2o1 [Compound I-35, 4-(4-(2-methylfuro[3,2-c]pyridyl)amino)-N-(4-((4-methyl-1-piperazinyl)methyl)phenyl)-1H-3-pyrazolecarboxamide]",CDK2 inhibition % (1 × 10^−6 mol/L),CDK2/A,73.23%
same,Aurora A inhibition % (1 × 10^−6 mol/L),Aurora A,55.99%
"CN1CCN(Cc2ccc(NC(=O)c3n[nH]cc3Nc3nccc4cc[nH]c34)cc2)CC1 [Compound I-43, 4-(7-(1H-pyrrolo[2,3-c]pyridyl)amino)-N-(4-((4-methyl-1-piperazinyl)methyl)phenyl)-1H-3-pyrazolecarboxamide]",CDK2 inhibition % (1 × 10^−6 mol/L),CDK2/A,76.09%
same,Aurora A inhibition % (1 × 10^−6 mol/L),Aurora A,55.02%
"Cc1csc2ncnc(Nc3c[nH]nc3C(=O)Nc3ccc(CN4CCN(C)CC4)cc3)c12 [Compound I-5, 4-(4-(5-methylthieno[2,3-d]pyrimidinyl)amino)-N-(4-((4-methyl-1-piperazinyl)methyl)phenyl)-1H-3-pyrazolecarboxamide]",CDK2 inhibition % (1 × 10^−6 mol/L),CDK2/A,51.24%
same,Aurora A inhibition % (1 × 10^−6 mol/L),Aurora A,58.62%
"Cc1cc2ncnc(Nc3c[nH]nc3C(=O)Nc3ccc(CN4CCOCC4)cc3)c2[nH]1 [Compound I-20, 4-(4-(6-methyl-5H-pyrrolo[3,2-d]pyrimidinyl)amino)-N-(4-((4-morpholinyl)methyl)phenyl)-1H-3-pyrazolecarboxamide]",CDK2 inhibition % (1 × 10^−6 mol/L),CDK2/A,62.25%
same,Aurora A inhibition % (1 × 10^−6 mol/L),Aurora A,60.72%
"Cc1csc2ncnc(Nc3c[nH]nc3C(=O)Nc3ccc(CN4CCOCC4)cc3)c12 [Compound I-6, 4-(4-(5-methylthieno[2,3-d]pyrimidinyl)amino)-N-(4-((4-morpholinyl)methyl)phenyl)-1H-3-pyrazolecarboxamide]",CDK2 inhibition % (1 × 10^−6 mol/L),CDK2/A,60.68%
same,Aurora A inhibition % (1 × 10^−6 mol/L),Aurora A,54.80%
"Cc1cc2c(Nc3c[nH]nc3C(=O)Nc3ccc(CN4CCOCC4)cc3)ncnc2[nH]1 [Compound I-14, 4-(4-(6-methyl-7H-pyrrolo[2,3-d]pyrimidinyl)amino)-N-(4-((4-morpholinyl)methyl)phenyl)-1H-3-pyrazolecarboxamide]",CDK2 inhibition % (1 × 10^−6 mol/L),CDK2/A,65.78%
same,Aurora A inhibition % (1 × 10^−6 mol/L),Aurora A,66.26%
"O=C(Nc1ccc(CN2CCOCC2)cc1)c1n[nH]cc1Nc1ncnc2[nH]ccc12 [Compound I-12, 4-(4-(7H-pyrrolo[2,3-d]pyrimidinyl)amino)-N-(4-((4-morpholinyl)methyl)phenyl)-1H-3-pyrazolecarboxamide]",CDK2 inhibition % (1 × 10^−6 mol/L),CDK2/A,66.39%
same,Aurora A inhibition % (1 × 10^−6 mol/L),Aurora A,49.44%
"CN1CCN(Cc2ccc(NC(=O)c3n[nH]cc3Nc3nccc4occc34)cc2)CC1 [Compound I-33, 4-(4-furo[3,2-c]pyridylamino)-N-(4-((4-methyl-1-piperazinyl)menthyl)phenyl)-1H-3-pyrazolecarboxamide]",CDK2 inhibition % (1 × 10^−6 mol/L),CDK2/A,44.93%
same,Aurora A inhibition % (1 × 10^−6 mol/L),Aurora A,45.08%
"O=C(Nc1ccc(CN2CCOCC2)cc1)c1n[nH]cc1Nc1ncnc2cc[nH]c12 [Compound I-18, 4-(4-(5H-pyrrolo[3,2-d]pyrimidinyl)amino)-N-(4-((4-morpholinyl)methyl)phenyl)-1H-3-pyrazolecarboxamide]",CDK2 inhibition % (1 × 10^−6 mol/L),CDK2/A,64.99%
same,Aurora A inhibition % (1 × 10^−6 mol/L),Aurora A,53.66%
"4-(7-(1H-pyrrolo[2,3-c]pyridyl)amino)-N-(4-((4-morpholinyl)methyl)phenyl)-1H-3-pyrazolecarboxamide [Compound I-44]",CDK2 inhibition % (1 × 10^−6 mol/L),CDK2/A,75.91%
same,Aurora A inhibition % (1 × 10^−6 mol/L),Aurora A,54.94%
"Cc1sc2ncnc(Nc3c[nH]nc3C(=O)Nc3ccc(CN4CCN(C)CC4)cc3)c2c1C [Compound I-7, 4-(4-(5,6-dimethylthieno[2,3-d]pyrimidinyl)amino)-N-(4-((4-methyl-1-piperazinyl)methyl)phenyl)-1H-3-pyrazolecarboxamide]",CDK2 inhibition % (1 × 10^−6 mol/L),CDK2/A,65.12%
same,Aurora A inhibition % (1 × 10^−6 mol/L),Aurora A,54.93%
"Cc1csc2c(Nc3c[nH]nc3C(=O)Nc3ccc(CN4CCN(C)CC4)cc3)nccc12 [Compound I-31, 4-(7-(3-methylthieno[2,3-c]pyridyl)amino)-N-(4-((4-methyl-1-piperazinyl)methyl)phenyl)-1H-3-pyrazolecarboxamide]",CDK2 inhibition % (1 × 10^−6 mol/L),CDK2/A,45.34%
same,Aurora A inhibition % (1 × 10^−6 mol/L),Aurora A,70.27%
"Cc1cc2ccnc(Nc3c[nH]nc3C(=O)Nc3ccc(CN4CCN(C)CC4)cc3)c2[nH]1 [Compound I-45, 4-(7-(2-methyl-1H-pyrrolo[2,3-c]pyridyl)amino)-N-(4-((4-methyl-1-piperazinyl)methyl)phenyl)-1H-3-pyrazolecarboxamide]",CDK2 inhibition % (1 × 10^−6 mol/L),CDK2/A,60.11%
same,Aurora A inhibition % (1 × 10^−6 mol/L),Aurora A,63.21%
"Cc1cc2ccnc(Nc3c[nH]nc3C(=O)Nc3ccc(CN4CCOCC4)cc3)c2[nH]1 [Compound I-46, 4-(7-(2-methyl-1H-pyrrolo[2,3-c]pyridyl)amino)-N-(4-((4-morpholinyl)methyl)phenyl)-1H-3-pyrazolecarboxamide]",CDK2 inhibition % (1 × 10^−6 mol/L),CDK2/A,68.57%
same,Aurora A inhibition % (1 × 10^−6 mol/L),Aurora A,60.73%
